Source: patent publication US11000033B2, “Ketone or oxime compound, and herbicide” (NISSAN CHEMICAL CORPORATION, priority 2014, dated 2021)

Experiments:
Type in all cases: in vivo
[1] = system: Echinochloa oryzacola Vasing.; assay: Test Example 2: herbicidal activity, application during weed generation in submerged conditions (symbol A); settings: Table 23; application herbicide amount 320 g/ha; grade 0-5 by criteria of Test Example 1
How it was run: (§1)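 Steps: fill pots with alluvial soil; add water to 4 cm depth; co-sow the three weeds; grow at 25° C. to 30° C. under glass; at 1–2 leaves, dose the floodwater with diluted emulsion; rate damage visually after 3 weeks.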

[2] = system: Cyperus difformis; assay: Test Example 3: herbicidal effect by foliage application, Wagner pot (symbol E); settings: application herbicide amount 320 g/ha
How it was run: (§2)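 Post-emergence, paddy-type test: seedlings 14 d old in shallow-flooded (0.1–0.5 cm) alluvial soil, 25–30 °C greenhouse. Emulsion diluted to target rate, sprayed on leaves. Read-out: visual effect on each species at 3 weeks, per set criteria.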

[3] = system: Abutilon theophrasti; assay: Test Example 5: herbicidal effect by foliage application, plastic box (symbol M); settings: 320 g/ha, 3 weeks after application
How it was run: (§3)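 Effect is rated 3 weeks after a foliar spray of water-diluted emulsion concentrate at a predetermined herbicide amount. Plants had grown 14 days in a 25° C. to 30° C. greenhouse from seed in sterilized diluvial soil.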

[4] = system: Alopecurus myosuroides; assay: Test Example 4: herbicidal effect by soil treatment (symbol J); settings: 320 g/ha
How it was run: (§4)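 Seeds were sown in sterilized diluvial soil, covered with about 1.5 cm of soil, and the soil surface was sprayed with a water-diluted emulsion of the compound at a predetermined rate. Plants grew in a greenhouse at 25° C. to 30° C.; effects were scored visually 3 weeks after application.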

[5] = system: Stellaria media; assay: Test Example 5: herbicidal effect by foliage application, plastic box (symbol P); settings: 320 g/ha, 3 weeks after application
How it was run: as §3

[6] = system: Setaria viridis; assay: Test Example 5: herbicidal effect by foliage application, plastic box (symbol G); settings: 320 g/ha, 3 weeks after application
How it was run: as §3

[7] = system: wheat; assay: Test Example 4: effect on crop by soil treatment (symbol e); settings: 320 g/ha
How it was run: (§5)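 Seeds were sown in spots on sterilized diluvial soil in a plastic box and covered with about 1.5 cm of soil. Plants were then grown in a greenhouse at 25° C. to 30° C.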

[8] = system: Veronica persica; assay: Test Example 5: herbicidal effect by foliage application, plastic box (symbol R); settings: 320 g/ha, 3 weeks after application
How it was run: as §3

[9] = system: Amaranthus retroflexus; assay: Test Example 4: herbicidal effect by soil treatment (symbol N); settings: 320 g/ha
How it was run: as §4

[10] = system: beet; assay: Test Example 5: effect on crop by foliage application, plastic box (symbol f); settings: 320 g/ha, 3 weeks after application
How it was run: (§6)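 Box culture: sterile diluvial soil, seeds spot-sown, ~1.5 cm cover, raised under glass at 25–30° C.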

[11] = system: Chenopodium album; assay: Test Example 4: herbicidal effect by soil treatment (symbol O); settings: 320 g/ha
How it was run: as §4

[12] = system: rice plant; assay: Test Example 5: effect on crop by foliage application, plastic box (symbol b); settings: 320 g/ha, 3 weeks after application
How it was run: as §6

[13] = system: Echinochloa crus-galli var. crus-galli; assay: Test Example 3: herbicidal effect by foliage application, Wagner pot (symbol H); settings: application herbicide amount 320 g/ha
How it was run: as §2

[14] = system: Scirpus juncoides; assay: Test Example 2: herbicidal activity, application during weed generation in submerged conditions (symbol B); settings: Table 23; application herbicide amount 320 g/ha; grade 0-5 by criteria of Test Example 1
How it was run: as §1

[15] = system: Amaranthus retroflexus; assay: Test Example 5: herbicidal effect by foliage application, plastic box (symbol N); settings: 320 g/ha, 3 weeks after application
How it was run: as §3

[16] = system: beet; assay: Test Example 4: effect on crop by soil treatment (symbol f); settings: 320 g/ha
How it was run: as §5

[17] = system: Chenopodium album; assay: Test Example 5: herbicidal effect by foliage application, plastic box (symbol O); settings: 320 g/ha, 3 weeks after application
How it was run: as §3

[18] = system: soybean; assay: Test Example 4: effect on crop by soil treatment (symbol d); settings: 320 g/ha
How it was run: as §5

[19] = system: Echinochloa crus-galli var. crus-galli; assay: Test Example 4: herbicidal effect by soil treatment (symbol H); settings: 320 g/ha
How it was run: as §4

[20] = system: Lolium multiflorum Lam.; assay: Test Example 4: herbicidal effect by soil treatment (symbol K); settings: 320 g/ha
How it was run: as §4

Row | SMILES | Herbicidal effect grade, A: Echinochloa oryzacola Vasing. [1] | herbicidal effect on E, grade 0-5 [2] | M: Abutilon theophrasti, herbicidal effect (criteria 0-5) [3] | J: Alopecurus myosuroides, herbicidal effect grade [4] | P: Stellaria media, herbicidal effect (criteria 0-5) [5] | G: Setaria viridis, herbicidal effect (criteria 0-5) [6] | e: wheat, effect grade on crop [7] | R: Veronica persica, herbicidal effect (criteria 0-5) [8] | N: Amaranthus retroflexus, herbicidal effect grade [9] | f: beet, effect on crop (criteria 0-5) [10] | O: Chenopodium album, herbicidal effect grade [11] | b: directly sowed rice plant, effect on crop (criteria 0-5) [12] | herbicidal effect on H (Echinochloa crus-galli var. crus-galli), grade 0-5 [13] | Herbicidal effect grade, B: Scirpus juncoides [14] | N: Amaranthus retroflexus, herbicidal effect (criteria 0-5) [15] | f: beet, effect grade on crop [16] | O: Chenopodium album, herbicidal effect (criteria 0-5) [17] | d: soybean, effect grade on crop [18] | H: Echinochloa crus-galli var. crus-galli, herbicidal effect grade [19] | K: Lolium multiflorum Lam., herbicidal effect grade [20]
1 | CON=C(C)CC1CC(OC(=O)C#C[Si](C)(C)C)=C(c2c(C)cc(C)cc2C)C1=O (stereo not drawn) [1-096] | 5 (Herbicidal ratio of 90% or more (almost completely withered)) | 5 (Herbicidal ratio of 90% or more (almost completely withered)) | 4 (Herbicidal ratio of 70% or higher and lower than 90%) | 5 (Herbicidal ratio of 90% or more (almost completely withered)) | 2 (Herbicidal ratio of 20% or higher and lower than 40%) | 5 (Herbicidal ratio of 90% or more (almost completely withered)) | 3 (Herbicidal ratio of 40% or higher and lower than 70%) | 3 (Herbicidal ratio of 40% or higher and lower than 70%) | 4 (Herbicidal ratio of 70% or higher and lower than 90%) | 0 (Herbicidal ratio of 5% or lower (almost no effect)) | 0 (Herbicidal ratio of 5% or lower (almost no effect)) | 5 (Herbicidal ratio of 90% or more (almost completely withered)) | 5 (Herbicidal ratio of 90% or more (almost completely withered)) | 5 (Herbicidal ratio of 90% or more (almost completely withered)) | 2 (Herbicidal ratio of 20% or higher and lower than 40%) | 0 (Herbicidal ratio of 5% or lower (almost no effect)) | 2 (Herbicidal ratio of 20% or higher and lower than 40%) | 1 (Herbicidal ratio of 5% or higher and lower than 20%) | 4 (Herbicidal ratio of 70% or higher and lower than 90%) | 5 (Herbicidal ratio of 90% or more (almost completely withered))
2 | CON=C(C)CC1CC(OC(=O)c2nsc(Cl)c2Cl)=C(c2c(C)cc(C)cc2C)C1=O (stereo not drawn) [1-099] | 4 (Herbicidal ratio of 70% or higher and lower than 90%) | 5 (Herbicidal ratio of 90% or more (almost completely withered)) | 4 (Herbicidal ratio of 70% or higher and lower than 90%) | 5 (Herbicidal ratio of 90% or more (almost completely withered)) | 3 (Herbicidal ratio of 40% or higher and lower than 70%) | 5 (Herbicidal ratio of 90% or more (almost completely withered)) | 3 (Herbicidal ratio of 40% or higher and lower than 70%) | 3 (Herbicidal ratio of 40% or higher and lower than 70%) | 3 (Herbicidal ratio of 40% or higher and lower than 70%) | 1 (Herbicidal ratio of 5% or higher and lower than 20%) | 0 (Herbicidal ratio of 5% or lower (almost no effect)) | 5 (Herbicidal ratio of 90% or more (almost completely withered)) | 5 (Herbicidal ratio of 90% or more (almost completely withered)) | 4 (Herbicidal ratio of 70% or higher and lower than 90%) | 0 (Herbicidal ratio of 5% or lower (almost no effect)) | 2 (Herbicidal ratio of 20% or higher and lower than 40%) | 3 (Herbicidal ratio of 40% or higher and lower than 70%) | 3 (Herbicidal ratio of 40% or higher and lower than 70%) | 5 (Herbicidal ratio of 90% or more (almost completely withered)) | 5 (Herbicidal ratio of 90% or more (almost completely withered))
3 | CON=C(C)CC1CC(OC(=O)c2nc(C)sc2C)=C(c2c(C)cc(C)cc2C)C1=O (stereo not drawn) [1-101] | 5 (Herbicidal ratio of 90% or more (almost completely withered)) | 5 (Herbicidal ratio of 90% or more (almost completely withered)) | 5 (Herbicidal ratio of 90% or more (almost completely withered)) | 5 (Herbicidal ratio of 90% or more (almost completely withered)) | 3 (Herbicidal ratio of 40% or higher and lower than 70%) | 5 (Herbicidal ratio of 90% or more (almost completely withered)) | 3 (Herbicidal ratio of 40% or higher and lower than 70%) | 3 (Herbicidal ratio of 40% or higher and lower than 70%) | 3 (Herbicidal ratio of 40% or higher and lower than 70%) | 0 (Herbicidal ratio of 5% or lower (almost no effect)) | 0 (Herbicidal ratio of 5% or lower (almost no effect)) | 5 (Herbicidal ratio of 90% or more (almost completely withered)) | 5 (Herbicidal ratio of 90% or more (almost completely withered)) | 5 (Herbicidal ratio of 90% or more (almost completely withered)) | 5 (Herbicidal ratio of 90% or more (almost completely withered)) | 3 (Herbicidal ratio of 40% or higher and lower than 70%) | 3 (Herbicidal ratio of 40% or higher and lower than 70%) | 2 (Herbicidal ratio of 20% or higher and lower than 40%) | 5 (Herbicidal ratio of 90% or more (almost completely withered)) | 5 (Herbicidal ratio of 90% or more (almost completely withered))
